Experimental data reported in ChEMBL document CHEMBL5331098, “Nanomolar β-glucosidase and β-galactosidase inhibition by enantiomeric α-1-C-alkyl-1,4-dideoxy-1,4-imino-arabinitol derivatives” (Eur J Med Chem, 2023).

Key:
[1] = molecular target: Alpha-galactosidase (Coffea arabica) (UniProt Q42656); experiment: Inhibition of coffee beans alpha-galactosidase assessed as reduction of p-nitrophenol release using p-nitrophenyl glycoside as substrate at 1000 uM by spectrophotometric analysis relative to control
Chain of Alpha-galactosidase (Coffea arabica) (Q42656 16-378 limits assumed): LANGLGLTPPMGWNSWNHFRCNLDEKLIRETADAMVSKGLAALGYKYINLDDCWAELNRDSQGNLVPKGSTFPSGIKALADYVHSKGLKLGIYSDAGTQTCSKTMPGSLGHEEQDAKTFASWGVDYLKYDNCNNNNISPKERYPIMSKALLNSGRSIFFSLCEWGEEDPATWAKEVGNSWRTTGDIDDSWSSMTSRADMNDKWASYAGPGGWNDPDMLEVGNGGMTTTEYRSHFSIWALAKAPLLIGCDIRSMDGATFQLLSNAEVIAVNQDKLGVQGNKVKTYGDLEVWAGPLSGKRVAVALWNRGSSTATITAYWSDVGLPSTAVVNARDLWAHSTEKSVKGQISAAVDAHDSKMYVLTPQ

[2] = Inhibition of rice alpha-glucosidase assessed as reduction of p-nitrophenol release using p-nitrophenyl glycoside as substrate by spectrophotometric analysis; set-up: species or system Oryza sativa
[3] = Inhibition of human lysosomal beta-glucosidase assessed as reduction of p-nitrophenol release using p-nitrophenyl glycoside as substrate by spectrophotometric analysis
Bos taurus [4] = organism: Bos taurus; experiment: Inhibition of bovine liver beta-glucosidase assessed as reduction of p-nitrophenol release using p-nitrophenyl glycoside as substrate at 1000 uM by spectrophotometric analysis relative to control
[5] = molecular target: T1, Alpha-mannosidase (Canavalia ensiformis) (UniProt C0HJB3); experiment: Inhibition of jack bean alpha-mannosidase assessed as reduction of p-nitrophenol release using p-nitrophenyl glycoside as substrate at 1000 uM by spectrophotometric analysis relative to control
T1 sequence (whole entry): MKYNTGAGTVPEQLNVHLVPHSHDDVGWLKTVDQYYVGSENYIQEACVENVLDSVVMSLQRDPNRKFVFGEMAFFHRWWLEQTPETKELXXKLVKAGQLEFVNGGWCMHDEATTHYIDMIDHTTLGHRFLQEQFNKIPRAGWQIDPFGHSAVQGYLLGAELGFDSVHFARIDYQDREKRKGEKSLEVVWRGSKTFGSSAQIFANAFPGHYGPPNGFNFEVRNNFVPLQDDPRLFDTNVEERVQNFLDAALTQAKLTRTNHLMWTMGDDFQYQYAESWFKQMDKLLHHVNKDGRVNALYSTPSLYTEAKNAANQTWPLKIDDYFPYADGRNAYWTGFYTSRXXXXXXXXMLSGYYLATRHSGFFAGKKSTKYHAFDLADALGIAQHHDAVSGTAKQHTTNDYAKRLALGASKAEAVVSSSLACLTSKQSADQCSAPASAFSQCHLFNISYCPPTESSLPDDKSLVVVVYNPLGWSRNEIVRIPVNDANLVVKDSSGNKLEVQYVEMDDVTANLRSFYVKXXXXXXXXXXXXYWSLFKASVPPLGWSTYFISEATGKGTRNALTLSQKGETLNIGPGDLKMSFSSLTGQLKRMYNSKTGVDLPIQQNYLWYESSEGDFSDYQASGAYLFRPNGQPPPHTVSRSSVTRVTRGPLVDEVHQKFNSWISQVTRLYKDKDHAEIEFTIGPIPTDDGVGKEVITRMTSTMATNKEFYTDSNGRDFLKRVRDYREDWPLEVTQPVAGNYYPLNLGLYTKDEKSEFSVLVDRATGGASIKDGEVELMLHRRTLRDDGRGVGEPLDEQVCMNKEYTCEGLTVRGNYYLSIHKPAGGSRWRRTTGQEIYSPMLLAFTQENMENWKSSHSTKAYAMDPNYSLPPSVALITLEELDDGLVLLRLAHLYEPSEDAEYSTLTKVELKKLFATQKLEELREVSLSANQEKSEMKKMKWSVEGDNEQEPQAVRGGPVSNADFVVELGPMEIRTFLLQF

Sus scrofa = organism: Sus scrofa; experiment: Inhibition of porcine kidney alpha/alpha-trehalase assessed as reduction of p-nitrophenol release using p-nitrophenyl glycoside as substrate at 1000 uM by spectrophotometric analysis relative to control
[6] = Inhibition of bovine liver beta-galactosidase assessed as reduction of p-nitrophenol release using p-nitrophenyl glycoside as substrate by spectrophotometric analysis; set-up: species or system Bos taurus
[7] = Inhibition of rat intestinal maltase assessed as D-glucose release using maltose as substrate at pH 6.8 by colorimetric method
[8] = molecular target: Alpha-glucosidase (Saccharomyces cerevisiae S288c) (UniProt P53341+P38158+P07265); experiment: Inhibition of yeast alpha-glucosidase assessed as reduction of p-nitrophenol release using p-nitrophenyl glycoside as substrate at 1000 uM by spectrophotometric analysis relative to control; type: protein assay
[9] = molecular target: T2, Tissue alpha-L-fucosidase (Bos taurus) (UniProt Q2KIM0); experiment: Inhibition of bovine kidney alpha-L-fucosidase assessed as reduction of p-nitrophenol release using p-nitrophenyl glycoside as substrate at 1000 uM by spectrophotometric analysis relative to control
T2 sequence (whole entry): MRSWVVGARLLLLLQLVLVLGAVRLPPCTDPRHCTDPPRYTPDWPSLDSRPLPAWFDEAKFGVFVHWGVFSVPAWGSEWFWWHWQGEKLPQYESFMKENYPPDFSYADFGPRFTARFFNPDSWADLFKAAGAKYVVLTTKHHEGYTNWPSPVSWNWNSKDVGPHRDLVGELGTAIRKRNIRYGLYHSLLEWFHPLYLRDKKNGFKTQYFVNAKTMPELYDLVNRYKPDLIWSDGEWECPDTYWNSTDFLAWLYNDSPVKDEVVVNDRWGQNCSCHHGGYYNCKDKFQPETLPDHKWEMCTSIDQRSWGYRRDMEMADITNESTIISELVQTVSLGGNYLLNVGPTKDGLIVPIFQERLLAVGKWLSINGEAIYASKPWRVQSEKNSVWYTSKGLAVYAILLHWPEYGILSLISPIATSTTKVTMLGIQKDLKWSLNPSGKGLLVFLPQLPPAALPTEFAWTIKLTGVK

Prunus dulcis = experiment: Inhibition of almond beta-glucosidase assessed as reduction of p-nitrophenol release using p-nitrophenyl glycoside as substrate at 1000 uM by spectrophotometric analysis relative to control
Helix pomatia = experiment: Inhibition of snail beta-mannosidase assessed as reduction of p-nitrophenol release using p-nitrophenyl glycoside as substrate at 1000 uM by spectrophotometric analysis relative to control
[10] = Inhibition of bovine liver beta-glucuronidase assessed as reduction of p-nitrophenol release using p-nitrophenyl-glycoside as substrate by spectrophotometric analysis; set-up: species or system Bos taurus
Aspergillus niger = experiment: Inhibition of Aspergillus niger amyloglucosidase assessed as reduction of p-nitrophenol release using p-nitrophenyl-glycoside as substrate at 1000 uM by spectrophotometric analysis relative to control
[11] = molecular target: Beta-glucuronidase (Escherichia coli (strain K12)) (UniProt P05804); experiment: Inhibition of Escherichia coli beta-glucuronidase assessed as reduction of p-nitrophenol release using p-nitrophenyl-glycoside as substrate at 1000 uM by spectrophotometric analysis relative to control
Chain of Beta-glucuronidase (Escherichia coli (strain K12)) (P05804 whole entry, looked up): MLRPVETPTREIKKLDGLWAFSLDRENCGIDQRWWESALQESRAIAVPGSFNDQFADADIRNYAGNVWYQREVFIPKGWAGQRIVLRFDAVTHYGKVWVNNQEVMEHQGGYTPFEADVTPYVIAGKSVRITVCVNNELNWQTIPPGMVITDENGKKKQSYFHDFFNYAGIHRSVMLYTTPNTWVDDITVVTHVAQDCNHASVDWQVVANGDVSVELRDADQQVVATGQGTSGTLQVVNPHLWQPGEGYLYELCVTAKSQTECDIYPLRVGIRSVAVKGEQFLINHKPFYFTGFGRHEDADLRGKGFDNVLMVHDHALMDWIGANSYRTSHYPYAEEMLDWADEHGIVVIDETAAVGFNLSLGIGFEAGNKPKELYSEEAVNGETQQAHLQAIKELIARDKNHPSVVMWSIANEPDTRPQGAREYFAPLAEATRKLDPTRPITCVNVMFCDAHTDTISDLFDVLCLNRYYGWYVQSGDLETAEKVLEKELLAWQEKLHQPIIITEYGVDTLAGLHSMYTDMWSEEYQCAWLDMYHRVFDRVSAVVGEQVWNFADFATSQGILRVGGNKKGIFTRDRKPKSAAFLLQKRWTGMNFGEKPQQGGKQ

Penicillium decumbens = experiment: Inhibition of Penicillium decumbens alpha-L-rhamnosidase assessed as reduction of p-nitrophenol release using p-nitrophenyl-glycoside as substrate at 1000 uM by spectrophotometric analysis relative to control
Alpha-galactosidase = Alpha-galactosidase (Coffea arabica, UniProt Q42656); experiment: Inhibition of coffee beans alpha-galactosidase assessed as reduction of p-nitrophenol release using p-nitrophenyl glycoside as substrate by spectrophotometric analysis
Chain of Alpha-galactosidase (Q42656 whole entry): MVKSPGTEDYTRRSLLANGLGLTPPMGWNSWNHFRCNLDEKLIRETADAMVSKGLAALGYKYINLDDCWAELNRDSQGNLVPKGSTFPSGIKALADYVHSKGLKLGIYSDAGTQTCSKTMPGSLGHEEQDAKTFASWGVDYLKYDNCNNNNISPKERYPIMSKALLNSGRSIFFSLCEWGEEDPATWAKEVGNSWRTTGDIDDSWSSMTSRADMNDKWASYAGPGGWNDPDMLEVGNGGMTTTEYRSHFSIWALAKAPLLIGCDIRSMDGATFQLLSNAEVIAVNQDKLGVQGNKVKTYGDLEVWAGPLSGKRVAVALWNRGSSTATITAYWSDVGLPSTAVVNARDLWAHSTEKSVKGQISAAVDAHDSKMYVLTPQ

Rattus norvegicus = organism: Rattus norvegicus; experiment: Inhibition of rat intestinal maltase assessed as D-glucose release using maltose as substrate at pH 6.8 at 1000 uM by colorimetric method relative to control
[12] = Inhibition of bovine liver beta-glucosidase assessed as reduction of p-nitrophenol release using p-nitrophenyl glycoside as substrate by spectrophotometric analysis; set-up: species or system Bos taurus
[13] = Inhibition of Penicillium decumbens alpha-L-rhamnosidase assessed as reduction of p-nitrophenol release using p-nitrophenyl-glycoside as substrate by spectrophotometric analysis
Bos taurus [14] = organism: Bos taurus; experiment: Inhibition of bovine liver beta-glucuronidase assessed as reduction of p-nitrophenol release using p-nitrophenyl-glycoside as substrate at 1000 uM by spectrophotometric analysis relative to control
Beta-glucuronidase = Beta-glucuronidase (Escherichia coli (strain K12), UniProt P05804); experiment: Inhibition of Escherichia coli beta-glucuronidase assessed as reduction of p-nitrophenol release using p-nitrophenyl-glycoside as substrate by spectrophotometric analysis
Chain of Beta-glucuronidase (P05804 whole entry): as the sequence (P05804 whole entry, looked up) above

Alpha-mannosidase = molecular target: T3, Alpha-mannosidase (Canavalia ensiformis, UniProt C0HJB3); experiment: Inhibition of jack bean alpha-mannosidase assessed as reduction of p-nitrophenol release using p-nitrophenyl glycoside as substrate by spectrophotometric analysis
T3 sequence (C0HJB3 whole entry): T1 sequence (whole entry)

[15] = Inhibition of almond beta-glucosidase assessed as reduction of p-nitrophenol release using p-nitrophenyl glycoside as substrate by spectrophotometric analysis; set-up: species or system Prunus dulcis
[16] = Inhibition of human beta-glucosidase
[17] = molecular target: T4, Tissue alpha-L-fucosidase (Bos taurus, UniProt Q2KIM0); experiment: Inhibition of bovine kidney alpha-L-fucosidase assessed as reduction of p-nitrophenol release using p-nitrophenyl glycoside as substrate by spectrophotometric analysis
T4 sequence (Q2KIM0 whole entry): T2 sequence (whole entry)

Alpha-glucosidase = Alpha-glucosidase (Saccharomyces cerevisiae S288c, UniProt P53341+P38158+P07265); experiment: Inhibition of yeast alpha-glucosidase assessed as reduction of p-nitrophenol release using p-nitrophenyl glycoside as substrate by spectrophotometric analysis; type: protein assay

SMILES	inhibition [1]	IC50 [2]	IC50 [3]	inhibition [5]	inhibition (Sus scrofa)	IC50 [6]	IC50 [7]	inhibition [8]	inhibition [9]	inhibition (Helix pomatia)	inhibition (Aspergillus niger)	IC50 [12]	IC50 [13]	inhibition (Bos taurus [14])	IC50 (Beta-glucuronidase)	IC50 [15]	other results
Cc1ccc(CCCCCC[C@@H](O)[C@@H]2N[C@@H](CO)[C@H](O)[C@H]2O)cc1	1.6%	63 µM	25 µM	9.3%	0%	46 µM	13 µM	37.6%	0%	0%	11.3%						inhibition (Bos taurus [4]): 45.4%; inhibition (Prunus dulcis): 14.7%; IC50 [10]: 65 µM; inhibition [11]: 24.5%; inhibition (Penicillium decumbens): 2.1%
OC[C@H]1N[C@H](CCCCCCCc2ccccc2)[C@@H](O)[C@H]1O		85 µM	5.2 µM		3.5%	22 µM		21.1%	32.7%	3.6%	6%	64 µM	313 µM	12.7%	75 µM	464 µM	IC50 (Alpha-galactosidase): 41 µM; inhibition (Rattus norvegicus): 43.3%; IC50 (Alpha-mannosidase): 274 µM
CCCCCCCCCCCCCC1N[C@H](CO)[C@@H](O)[C@@H]1O (stereo partly drawn)																	IC50 [16]: 0.77 µM
Cl.OC[C@@H]1N[C@@H](CCCCCCCc2ccccc2)[C@H](O)[C@H]1O	12.1%	11 µM		14.7%	5.6%	16 µM	1.9 µM			6.7%	7.2%	305 µM	409 µM	41.5%	133 µM	206 µM	IC50 [17]: 91 µM; IC50 (Alpha-glucosidase): 802 µM
